In patent US20170000740A9, “COMBINATION THERAPEUTIC NANOPARTICLES” (UNIVERSITY OF GEORGIA RESEARCH FOUNDATION INC., priority 2013, published 2017):

Test system: human prostate cancer PC-3 cells
Experiment: Cytotoxic profile by MTT assay on human prostate cancer PC-3 cell line
Type: cell-based
Settings: incubation time=48 h

CC(=O)Oc1ccccc1C(=O)O [Aspirin]
IC50 (Homo sapiens): > 100 µM

N.N.[Cl][Pt][Cl] [Cisplatin]
IC50: 14 µM
